Source: patent US9155776B2, “Low frequency glatiramer acetate therapy” (Yeda Research & Development Co., Ltd., priority 2009, dated 2015)
Like-named read-outs stand apart in the source and are kept apart here.

Tests used:
MS patients = conditions: 20 mg/day subcutaneous (s.c.) dose; cited from earlier work
[1] = test system: patients who have experienced a clinically isolated syndrome (CIS); conditions: three s.c. injections over a period of seven days with at least one day between every injection
[2] = test system: patients who have experienced a clinically isolated syndrome (CIS); conditions: 20 mg daily s.c. injection; PCT/US2008/013146; cited from earlier work
[3] = test system: subjects with Relapsing-Remitting Multiple Sclerosis (RRMS)
Method: The study is designed to select three days a week for injection. Three injections are administered for every seven days and there must be at least one day between each injection.
Eligible subjects are randomized in a 2:1 ratio (40 mg:placebo) and assigned to one of the following three treatment arms: • 1. […] Matching placebo three times weekly (450 subjects)
During the PC phase, subjects are evaluated at study sites for a total of 7 scheduled visits at months: −1 (screening), 0 (baseline), 1, 3, 6, 9, and 12 (End of PC phase).
During the study, the following assessments are performed (regardless of the treatment assignment) at the specified time points: • Vital signs are measured at each study visit. • A physical examination is performed at months −1 (screening), 0 (baseline) 6, 12 (end of PC phase) and every 6 months thereafter. In addition, a physical examination will be performed at the termination visit of the OL phase. • The following safety clinical laboratory tests are performed: • Complete blood count (CBC) with differential—at all scheduled visits in the PC phase, and every 12 months thereafter. In addition this test will be performed at the termination visit of the OL phase. • Serum chemistry (including electrolytes, creatinine, urea and liver enzymes) and urinalysis—at all scheduled visits in the PC phase, and every 12 months thereafter. In addition this test will be performed at the termination visit of the OL phase. • Serum β-hCG in women of child-bearing potential is performed at months −1 (screening), 0 (baseline), 12 (end of PC phase), and every 12 months thereafter. In addition this test will be performed at the termination visit of the OL phase. • ECG is performed at months −1 (screening), 0 (baseline), 12 (end of PC phase), and every 12 months thereafter. In addition an ECG will be performed at the termination visit of the OL phase. • Chest X-ray is performed at month −1 (screening) if not performed within 6 months prior to screening visit. • Adverse Events (AEs) are monitored throughout the study. • Concomitant Medications are monitored throughout the study. • Neurological evaluations, including Neurostatus [Functional Systems (FS), Expanded Disability Status Scale (EDSS), Ambulation Index (AI)] are performed at months −1 (screening), 0 (baseline), 3, 6, 9, 12 (end of PC phase) and every 6 months thereafter. In addition, a neurological examination are performed at the termination visit of the OL phase. • The general health status is assessed by the EuroQoL (EQ5D) questionnaire at months 0 (baseline) and 12 (end of PC phase). • Additional quality of life parameters are assessed by the WPAI (Work Productivity and Activities Impairment) Questionnaire at month 0 (baseline), 3, 6, 9 and 12 (end of PC phase). • All subjects undergo MRI scans at months 0 (13-7 days prior to baseline visit), 6 and 12 (end of PC phase). Following the results of the PC phase, the Sponsor may decide to perform an MRI scan at the termination visit of the OL phase. • Relapses are confirmed/monitored throughout the study.
Route and Dosage Form: • Glatiramer Acetate 40 mg in 1 ml for subcutaneous injection in a pre-filled syringe (PFS), administered three times a week. • Matching placebo injection (mannitol in 1 ml WFI) for subcutaneous injection in a pre-filled syringe (PFS). Outcome Measures: Primary Outcome Measure: • The total number of confirmed relapses during the 12 month PC phase.

MS = conditions: controlled clinical trials; cited from earlier work
[4] = 40 mg s.c. three times weekly compared with 20 mg s.c. GA daily administration
[5] = 40 mg s.c. three times weekly vs placebo

## L-glutamic acid polymer with L-alanine, L-lysine, L-tyrosine, acetate (salt) [GA]
MS patients
  total number of enhancing lesions in MS patients as measured by MRI: has been shown to reduce
[1]
  efficacy in treatment of patients who have experienced a clinically isolated syndrome (CIS): expected to work
[2]
  efficacy in treatment of patients who have experienced a clinically isolated syndrome (CIS): has been shown to work
[3]; 40 mg s.c. three times weekly compared to the placebo group, RRMS subjects
  reduction of subject population annualized relapse rate: ≥ 30%
[3]; [4]
  increasing the proportion of relapse-free subjects during the placebo-controlled phase: at least as effective as 20 mg s.c. GA daily administration
  increasing the time to the first confirmed relapse during the placebo-controlled phase: at least as effective as 20 mg s.c. GA daily administration
  reducing the change from baseline to month 12 (end of placebo-controlled phase) in EDSS Score: at least as effective as 20 mg s.c. GA daily administration
  reducing the cumulative number of enhancing lesions on T1-weighted images taken at months 6 and 12: at least as effective as 20 mg s.c. GA daily administration
  reducing the level of disability as measured by EDSS Score: at least as effective as 20 mg s.c. GA daily administration
  reducing the level of disability as measured by EuroQoL (EQ5D) questionnaire: at least as effective as 20 mg s.c. GA daily administration
  reducing the level of disability as measured by the work productivity and activities impairment-General Health (WPAI-GH) questionnaire: at least as effective as 20 mg s.c. GA daily administration
  reducing the number of new T2 lesions at month 12: at least as effective as 20 mg s.c. GA daily administration
  reducing the number of new hypointense lesions on enhanced T1 scans at month 12 as compared to the baseline scan: at least as effective as 20 mg s.c. GA daily administration
  reducing the progression of MRI-monitored disease activity in the patient: at least as effective as 20 mg s.c. GA daily administration
  reducing the subject population annualized relapse rate: at least as effective as 20 mg s.c. GA daily administration
  reducing the total number of confirmed relapses during the placebo-controlled phase requiring hospitalization and/or IV steroids: at least as effective as 20 mg s.c. GA daily administration
[3]; 40 mg s.c. three times weekly compared with 20 mg s.c. GA daily administration, progression of at least 1 EDSS point sustained for at least 3 months
  reducing proportion (%) of subjects with confirmed EDSS progression during the placebo-controlled phase: at least as effective as 20 mg s.c. GA daily administration
[3]; [5]
  change from baseline to month (end of placebo-controlled phase) in EDSS Score: significantly reduces
  cumulative number of enhancing lesions on T1-weighted images taken at months 6 and 12: significantly reduces
  level of disability as measured by EDSS Score: significantly reduces
  level of disability as measured by EuroQoL (EQ5D) questionnaire: significantly reduces
  level of disability as measured by the work productivity and activities impairment-General Health (WPAI-GH) questionnaire: significantly reduces
  number of new T2 lesions at month 12: significantly reduces
  number of new hypointense lesions on enhanced T1 scans at month 12 as compared to the baseline scan: significantly reduces
  progression of MRI-monitored disease activity in the patient: significantly reduces
  proportion of relapse-free subjects during the placebo-controlled phase: significantly increases
  time to the first confirmed relapse during the placebo-controlled phase: significantly increases
  total number of confirmed relapses during the placebo-controlled phase requiring hospitalization and/or IV steroids: significantly reduces
[3]; 40 mg s.c. three times weekly vs placebo, progression of at least 1 EDSS point sustained for at least 3 months
  proportion (%) of subjects with confirmed EDSS progression during the placebo-controlled phase: significantly reduces

B1: IFNβ-1b: immunomodulator (IFNβ 1b) whose efficacy in MS was shown in controlled clinical trials (protein, UniProt P01574 22-187, looked up, variant C17S)
Interferon beta: MSYNLLGFLQRSSNFQSQKLLWQLNGRLEYCLKDRMNFDIPEEIKQLQQFQKEDAALTIYEMLQNIFAIFRQDSSSTGWNETIVENLLANVYHQINHLKTVLEEKLEKEDFTRGKLMSSLHLKRYYGRILHYLKAKEYSHCAWTIVRVEILRNFYFINRLTGYLRN
MS
  efficacy in the treatment of MS: demonstrated the efficacy
